Source: ChEMBL document CHEMBL3885861, “Open TG-GATES”

Species on record: Rattus norvegicus
Assay: Open TG-GATES - Regimen: Single
Assay type: toxicity, organism-based, Sprague-Dawley
Set-up: regimen Single, gender Male, age 6 weeks
Conditions: in vivo, po, 50 mg/kg, route gavage, dose level Low; for APTT / Bas / Eos / Fbg / Hb / Ht / Lym / MCH / MCHC / MCV / Mono / Neu / PT / Plat / RBC / Ret / WBC: tissue Blood; for KIDNEY_L / KIDNEY_R / KIDNEY_TOTAL: tissue Kidney; for LIVER: tissue Liver; for A/G / ALP / ALT / AST / BUN / CRE / Ca / Cl / DBIL / GLC / IP / K / LDH / Na / PL / RALB / TBIL / TC / TG / TP / gamma-GTP: tissue Plasma

CN1C(=O)CCS(=O)(=O)C1c1ccc(Cl)cc1 (configuration not stated) [CHLORMEZANONE]
TERMINAL_BW (3 h): 228.4 g
APTT (3 h): 16.7 s
Bas (3 h): 0%
Eos (3 h): 1%
Fbg (3 h): 319.2 mg/dL
Hb (3 h): 13.2 g/dL
Ht (3 h): 39.3%
Lym (3 h): 73.8%
MCH (3 h): 21.6 pg
MCHC (3 h): 33.6%
MCV (3 h): 64.3 fL
Mono (3 h): 4%
Neu (3 h): 20.6%
PT (3 h): 13 s
Plat (3 h): 111.8 x10_4/uL
RBC (3 h): 611.6 x10_4/ul
Ret (3 h): 9.4%
WBC (3 h): 84.7 x10_2/uL
KIDNEY_L (3 h): 0.9 g
KIDNEY_R (3 h): 0.9 g
KIDNEY_TOTAL (3 h): 1.9 g
LIVER (3 h): 10.4 g
A/G (3 h): 0.9
ALP (3 h): 1492 IU/L
ALT (3 h): 52.6 IU/L
AST (3 h): 80.2 IU/L
BUN (3 h): 8.8 mg/dL
CRE (3 h): 0.2 mg/dL
Ca (3 h): 11.6 mg/dL
Cl (3 h): 105.2 meq/L
DBIL (3 h): 0.018 mg/dL
GLC (3 h): 187 mg/dL
IP (3 h): 9.6 mg/dL
K (3 h): 4 meq/L
LDH (3 h): 60.2 IU/L
Na (3 h): 141.6 meq/L
PL (3 h): 155 mg/dL
RALB (3 h): 2.7 g/dL
TBIL (3 h): 0.046 mg/dL
TC (3 h): 83.6 mg/dL
TG (3 h): 75.4 mg/dL
TP (3 h): 5.7 g/dL
gamma-GTP (3 h): 1 IU/L
TERMINAL_BW (6 h): 227.2 g
APTT (6 h): 15 s
Bas (6 h): 0%
Eos (6 h): 0.8%
Fbg (6 h): 321.2 mg/dL
Hb (6 h): 13.8 g/dL
Ht (6 h): 40.9%
Lym (6 h): 76.8%
MCH (6 h): 21.6 pg
MCHC (6 h): 33.7%
MCV (6 h): 64.2 fL
Mono (6 h): 3.4%
Neu (6 h): 18.2%
PT (6 h): 13.2 s
Plat (6 h): 115.1 x10_4/uL
RBC (6 h): 637.2 x10_4/ul
Ret (6 h): 7.3%
WBC (6 h): 83.9 x10_2/uL
KIDNEY_L (6 h): 0.9 g
KIDNEY_R (6 h): 1 g
KIDNEY_TOTAL (6 h): 1.9 g
LIVER (6 h): 9.5 g
A/G (6 h): 0.9
ALP (6 h): 1829.6 IU/L
ALT (6 h): 38.6 IU/L
AST (6 h): 71.4 IU/L
BUN (6 h): 8.8 mg/dL
CRE (6 h): 0.2 mg/dL
Ca (6 h): 11.6 mg/dL
Cl (6 h): 107 meq/L
DBIL (6 h): 0.016 mg/dL
GLC (6 h): 189.8 mg/dL
IP (6 h): 10.3 mg/dL
K (6 h): 4.1 meq/L
LDH (6 h): 56.8 IU/L
Na (6 h): 143.2 meq/L
PL (6 h): 153 mg/dL
RALB (6 h): 2.7 g/dL
TBIL (6 h): 0.038 mg/dL
TC (6 h): 78 mg/dL
TG (6 h): 68.4 mg/dL
TP (6 h): 5.7 g/dL
gamma-GTP (6 h): 1.2 IU/L
TERMINAL_BW (9 h): 227.8 g
APTT (9 h): 14.1 s
Bas (9 h): 0%
Eos (9 h): 0.8%
Fbg (9 h): 351 mg/dL
Hb (9 h): 13.4 g/dL
Ht (9 h): 39.3%
Lym (9 h): 77.8%
MCH (9 h): 22.3 pg
MCHC (9 h): 34.1%
MCV (9 h): 65.5 fL
Mono (9 h): 2.2%
Neu (9 h): 18%
PT (9 h): 13.5 s
Plat (9 h): 121.2 x10_4/uL
RBC (9 h): 601.6 x10_4/ul
Ret (9 h): 8%
WBC (9 h): 76.9 x10_2/uL
KIDNEY_L (9 h): 1 g
KIDNEY_R (9 h): 0.9 g
KIDNEY_TOTAL (9 h): 1.9 g
LIVER (9 h): 9.2 g
A/G (9 h): 0.9
ALP (9 h): 1623.2 IU/L
ALT (9 h): 34.4 IU/L
AST (9 h): 71.6 IU/L
BUN (9 h): 9.4 mg/dL
CRE (9 h): 0.2 mg/dL
Ca (9 h): 11.2 mg/dL
Cl (9 h): 106.4 meq/L
DBIL (9 h): 0.02 mg/dL
GLC (9 h): 191.4 mg/dL
IP (9 h): 11.9 mg/dL
K (9 h): 4 meq/L
LDH (9 h): 57.6 IU/L
Na (9 h): 143.8 meq/L
PL (9 h): 121.4 mg/dL
RALB (9 h): 2.6 g/dL
TBIL (9 h): 0.038 mg/dL
TC (9 h): 67.2 mg/dL
TG (9 h): 50.4 mg/dL
TP (9 h): 5.5 g/dL
gamma-GTP (9 h): 1 IU/L
TERMINAL_BW (24 h): 234.7 g
APTT (24 h): 16.1 s
Bas (24 h): 0%
Eos (24 h): 0.8%
Fbg (24 h): 278.2 mg/dL
Hb (24 h): 13.6 g/dL
Ht (24 h): 39.7%
Lym (24 h): 75%
MCH (24 h): 21.7 pg
MCHC (24 h): 34.4%
MCV (24 h): 63.3 fL
Mono (24 h): 3.4%
Neu (24 h): 20.2%
PT (24 h): 13 s
Plat (24 h): 113.6 x10_4/uL
RBC (24 h): 626.8 x10_4/ul
Ret (24 h): 7.6%
WBC (24 h): 72.4 x10_2/uL
KIDNEY_L (24 h): 1.1 g
KIDNEY_R (24 h): 1 g
KIDNEY_TOTAL (24 h): 2.1 g
LIVER (24 h): 11.3 g
A/G (24 h): 0.9
ALP (24 h): 1615.6 IU/L
ALT (24 h): 45 IU/L
AST (24 h): 77.4 IU/L
BUN (24 h): 14.8 mg/dL
CRE (24 h): 0.2 mg/dL
Ca (24 h): 11.1 mg/dL
Cl (24 h): 106.2 meq/L
DBIL (24 h): 0.02 mg/dL
GLC (24 h): 182.2 mg/dL
IP (24 h): 7.4 mg/dL
K (24 h): 4.2 meq/L
LDH (24 h): 83 IU/L
Na (24 h): 142 meq/L
PL (24 h): 137.8 mg/dL
RALB (24 h): 2.6 g/dL
TBIL (24 h): 0.024 mg/dL
TC (24 h): 80.4 mg/dL
TG (24 h): 92.4 mg/dL
TP (24 h): 5.6 g/dL
gamma-GTP (24 h): 1.2 IU/L
